Experimental data taken from publication PMC8147254, “Efflux at the Blood-Brain Barrier Reduces the Cerebral Exposure to Ochratoxin A, Ochratoxin α, Citrinin and Dihydrocitrinone” (Toxins, 2021).

Experiments:
PBCEC [1] = assay type: cell-based, porcine; settings: levels higher than 100 µM; data not shown
Method: In order to study the barrier integrity PBCEC were incubated with 1 µM OTA, OTα, CIT and DHCIT in the apical compartment (blood side) of Transwell® filter inserts for 48 h. The TEER values as well as the electrical capacitance (cCL) were monitored by cellular impedance spectroscopy (Figure 4A,B). As a negative control the permeability of […] was measured after 48 h. Sucrose is not transported by any cellular transport protein and represents a marker for an intact BBB.
For barrier integrity, TEER values were monitored using a cellZscope® cellular impedance spectrometer (nanoAnalytics, Münster, Germany). […]. The detailed protocols can be found in the Supplementary Materials. […]
6.1. Cellular impedance spectroscopy
To monitor the barrier integrity during all transfer studies, the transendothelial electrical resistance (TEER) was measured with a cellZscope® cellular impedance spectrometer (nanoAnalytics, Münster, Germany) using a module suitable for 24 Transwell® filter inserts. After the mycotoxins were added to the cell culture medium, TEER was analyzed until the end of the experiment (48 h). The waiting time after each run was set to 10 min, resulting in 60 scans per 48 h.
The results were normalized to the TEER values of the first impedance spectrum of each well. Data processing was performed using the cellZscope 1.3.4 software (nanoAnalytics, Münster, Germany).

PBCEC [2] = settings: 10 µM

## CCCN(CCC)S(=O)(=O)c1ccc(C(=O)O)cc1 [probenecid, 4-(N,N-dipropylaminosulfonyl)benzoic acid, reference compound]
PBCEC [1]
  effect on PBCEC barrier integrity: impaired the PBCEC barrier integrity

## CC(=O)OC[C@]12C[C@H](OC(=O)CC(C)C)C(C)=C[C@H]1O[C@@H]1[C@H](O)[C@@H](OC(C)=O)[C@@]2(C)[C@]12CO2 [T-2 toxin, reference compound]
PBCEC [2]
  cellular viability (dehydrogenase activity) compared to the negative control: 2 ± 1%
